Columns and labels:
Test in all cases: relative viability (nuclei count vs DMSO), 5 days (fraction); higher = more cells survive
[1] = system: A549
Summary of the method: (§1)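 A single step with final 0.05% Triton X-100, 1% formaldehyde and 1 ug/ml Hoechst fixed the cells and stained nuclei 5 days after treatment. Lung cancer cell lines in 1536-well plates had been treated by pin tool the day after seeding with one drug alone or a fixed anchor-drug dose plus five library-drug doses (not always all listed) in √10 steps, and nuclei were counted on 4× images. Relative viability is the ratio of nuclei in treated wells to nuclei in vehicle wells, taken as the median of duplicate plates.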

[2] = system: Calu-6
Summary of the method: as §1

[3] = system: EBC-1
Summary of the method: as §1

[4] = system: IA-LM
Summary of the method: as §1

[5] = system: LCLC-97TM1
Summary of the method: as §1

[6] = system: NCI-H1299
Summary of the method: as §1

[7] = system: NCI-H1355
Summary of the method: as §1

[8] = system: NCI-H1623
Summary of the method: as §1

[9] = system: NCI-H1703
Summary of the method: as §1

[10] = system: NCI-H1993
Summary of the method: as §1

[11] = system: NCI-H23
Summary of the method: as §1

[12] = system: NCI-H322M
Summary of the method: as §1

[13] = system: NCI-H596
Summary of the method: as §1

[14] = system: UMC-11
Summary of the method: as §1

For `CC(=O)O[C@@]12CO[C@@H]1C[C@H](O)[C@@]1(C)C(=O)[C@H](O)C3=C(C)[C@@H](OC(=O)[C@H](O)[C@@H](NC(=O)OC(C)(C)C)c4ccccc4)C[C@@](O)([C@@H](OC(=O)c4ccccc4)[C@H]21)C3(C)C` [Docetaxel] + COc1cc2c(Oc3ccc(NC(=O)C4(C(=O)Nc5ccc(F)cc5)CC4)cc3F)ccnc2cc1OCCCN1CCOCC1 [Foretinib] (partner 0.25 µM), the relative viability ([1]; first compound 0.0002 µM) was 0.957, the relative viability ([1]; first compound 0.000632 µM) was 0.795 and the relative viability ([1]; first compound 0.002 µM) was 0.0591. It also gave a relative viability ([1]; first compound 0.006325 µM) of 0.0413, a relative viability ([1]; first compound 0.02 µM) of 0.0241 and a relative viability ([2]; first compound 0.0002 µM) of 0.897. For the same molecule, the relative viability ([2]; first compound 0.000632 µM) was 0.627, the relative viability ([2]; first compound 0.002 µM) was 0.165 and the relative viability ([2]; first compound 0.006325 µM) was 0.081. It also gave a relative viability ([2]; first compound 0.02 µM) of 0.0747, a relative viability ([3]; first compound 0.0002 µM) of 0.0936 and a relative viability ([3]; first compound 0.000632 µM) of 0.0902. The relative viability ([3]; first compound 0.002 µM) was 0.0988, the relative viability ([3]; first compound 0.006325 µM) was 0.0924 and the relative viability ([3]; first compound 0.02 µM) was 0.09. The relative viability ([4]; first compound 0.0002 µM) was 1.05, the relative viability ([4]; first compound 0.000632 µM) was 0.386 and the relative viability ([4]; first compound 0.002 µM) was 0.0546. It also gave a relative viability ([4]; first compound 0.006325 µM) of 0.0457, a relative viability ([4]; first compound 0.02 µM) of 0.0491 and a relative viability ([5]; first compound 0.0002 µM) of 0.846. It also gave a relative viability ([5]; first compound 0.000632 µM) of 0.641, a relative viability ([5]; first compound 0.002 µM) of 0.697 and a relative viability ([5]; first compound 0.006325 µM) of 0.218. For the same molecule, the relative viability ([5]; first compound 0.02 µM) was 0.146, the relative viability ([6]; first compound 0.0002 µM) was 1.1 and the relative viability ([6]; first compound 0.000632 µM) was 1.14. It also gave a relative viability ([6]; first compound 0.002 µM) of 1, a relative viability ([6]; first compound 0.006325 µM) of 0.62 and a relative viability ([6]; first compound 0.02 µM) of 0.295. For the same molecule, the relative viability ([7]; first compound 0.0002 µM) was 0.958, the relative viability ([7]; first compound 0.000632 µM) was 0.886 and the relative viability ([7]; first compound 0.002 µM) was 0.625. For the same molecule, the relative viability ([7]; first compound 0.006325 µM) was 0.276, the relative viability ([7]; first compound 0.02 µM) was 0.243 and the relative viability ([8]; first compound 0.0002 µM) was 0.869. The relative viability ([8]; first compound 0.000632 µM) was 0.834, the relative viability ([8]; first compound 0.002 µM) was 0.584 and the relative viability ([8]; first compound 0.006325 µM) was 0.427. The relative viability ([8]; first compound 0.02 µM) was 0.284, the relative viability ([9]; first compound 0.000632 µM) was 0.351 and the relative viability ([9]; first compound 0.002 µM) was 0.341. For the same molecule, the relative viability ([9]; first compound 0.006325 µM) was 0.179, the relative viability ([9]; first compound 0.02 µM) was 0.154 and the relative viability ([10]; first compound 0.0002 µM) was 0.78. It also gave a relative viability ([10]; first compound 0.000632 µM) of 0.803, a relative viability ([10]; first compound 0.002 µM) of 0.659 and a relative viability ([10]; first compound 0.006325 µM) of 0.671. It also gave a relative viability ([10]; first compound 0.02 µM) of 0.51, a relative viability ([11]; first compound 0.0002 µM) of 0.964 and a relative viability ([11]; first compound 0.000632 µM) of 0.859. It also gave a relative viability ([11]; first compound 0.002 µM) of 0.705, a relative viability ([11]; first compound 0.006325 µM) of 0.188 and a relative viability ([11]; first compound 0.02 µM) of 0.147. The relative viability ([12]; first compound 0.0002 µM) was 0.928, the relative viability ([12]; first compound 0.000632 µM) was 0.949 and the relative viability ([12]; first compound 0.002 µM) was 0.956. The relative viability ([12]; first compound 0.006325 µM) was 0.702, the relative viability ([12]; first compound 0.02 µM) was 0.463 and the relative viability ([13]; first compound 0.0002 µM) was 0.901. It also gave a relative viability ([13]; first compound 0.000632 µM) of 0.51, a relative viability ([13]; first compound 0.002 µM) of 0.419 and a relative viability ([13]; first compound 0.006325 µM) of 0.365. It also gave a relative viability ([13]; first compound 0.02 µM) of 0.217, a relative viability ([14]; first compound 0.0002 µM) of 0.934 and a relative viability ([14]; first compound 0.000632 µM) of 0.943. For the same molecule, the relative viability ([14]; first compound 0.002 µM) was 0.307, the relative viability ([14]; first compound 0.006325 µM) was 0.245 and the relative viability ([14]; first compound 0.02 µM) was 0.186.

Source: the supplement of paper PMC10307832
